In one test the test system is P. stuartii PR500. The test is described as follows: Level of aminoglycoside resistance of strain PR500. It is filed as cell-based, Providencia stuartii. Conditions: PR500 (PR50 containing pR401 and pACYC184.aarG). On the procedure:
Therefore, strain PR500, which is a derivative of the wild-type P. stuartii PR50 [Rather, P. et al., J. Bacteriol. 175:6492-6498 (1993)], was used. PR500 was generated by introducing into PR50 both pR401 (aac(2′)-lacZ) and pACYC184.aarG, a compatible pACYC184 derivative containing the aarG gene. PR500 forms white colonies on plates containing X-gal and has levels of aminoglycoside resistance to 4 μg/ml of gentamicin. Selection of mutants was achieved by plating approximately 10^8 cells of PR500 on LB plates containing 15 μg/ml of gentamicin and X-gal (to select and identify regulatory mutants), ampicillin (150 μg/ml) to maintain pR401 and chloramphenicol (100 μg/ml) to maintain pACYC184.aarG. As observed previously, colonies arose at a frequency of […] [Rather, P. et al., J. Bacteriol. 175:6492-6498 (1993)]. […] While not limiting the present invention to any particular mechanism, these colonies presumably resulted from mutations in a trans-acting regulator of aac(2′)-la since expression of both the chromosomal copy of aac(2′)-la and the plasmid encoded aac(2′)-lacZ fusion were increased. One class of mutants which formed small blue colonies was identified and a representative isolate, PR60, was characterized. Introduction by electroporation (Gene Pulser, Biorad) of the previously cloned aarA, aarB, and aarD genes [Macinga, D. R. et al., Mol. Microbiol. […]

A further test has as its system P. stuartii. Conditions: cited from earlier work; for resistance rates being reported: P. stuartii, first- and second-generation cephalosporins susceptible to its β-lactamases.

Regarding gentamicin, the “levels of aminoglycoside resistance” value with P. stuartii PR500 came out at 4 µg/mL. The “proportions of P. stuartii resistant” value with P. stuartii (both in wards where the drug is widely used and in others (e.g., geriatric wards) where it was not used) is recorded as 80-100%.
With `Cc1nnc(SCC2=C(C(=O)O)N3C(=O)[C@@H](NC(=O)Cn4cnnn4)[C@H]3SC2)s1` [cefazolin], the “resistance rates being reported” value in the test with P. stuartii was 94%.
As to `O=C(Cc1cccs1)N[C@@H]1C(=O)N2C(C(=O)[O-])=C(C[n+]3ccccc3)CS[C@H]12` [cephaloridine], the “resistance rates being reported” value with P. stuartii is recorded as 82%.
For `CC1=C(C(=O)O)N2C(=O)[C@@H](NC(=O)[C@H](N)c3ccccc3)[C@H]2SC1` [cephalexin], in the test on P. stuartii, the “resistance rates being reported” value was 100%.
Take `CC(=O)OCC1=C(C(=O)O)N2C(=O)[C@@H](NC(=O)Cc3cccs3)[C@H]2SC1` [cephalothin]: the “resistance rates being reported” value with P. stuartii is 97%.

The values above are taken from patent US6383745B1, “Methods of screening for anti-microbial utilizing aarC and compositions thereof” (priority 1997, dated 2002).
